In ChEMBL document CHEMBL1201861, “Genomics of Drug Sensitity in Cancer screening data, Wellcome Trust Sanger Institute”:

How the values were obtained:
RL = assay: cells; assay type: functional, cell-based; conditions: Homo sapiens
Description: SANGER: Inhibition of human RL cell growth in a cell viability assay.

IST-SL2 = assay: cells; assay type: functional, cell-based; conditions: Homo sapiens;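 further: growth inhibition of human IST-SL2 cells, read out by a cell viability assay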
Description: SANGER: Inhibition of human IST-SL2 cell growth in a cell viability assay.

LP-1 = assay: cells; assay type: functional, cell-based; conditions: Homo sapiens;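 further: growth inhibition of human LP-1 cells, with the read-out taken from a cell viability assay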
Description: SANGER: Inhibition of human LP-1 cell growth in a cell viability assay.

NCI-H1963 = assay: cells; assay type: functional, cell-based; conditions: Homo sapiens;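 further: cell growth inhibition of the human line, determined with a cell viability assay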
Description: SANGER: Inhibition of human NCI-H1963 cell growth in a cell viability assay.

HCC1187 = assay: cells; assay type: functional, cell-based, Homo sapiens; conditions: Homo sapiens, HCC1187;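 further: growth inhibition of HCC1187 cells, read out with a cell viability assay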
Description: SANGER: Inhibition of human HCC1187 cell growth in a cell viability assay.

RPMI-6666 = assay: cells; assay type: functional, cell-based; conditions: Homo sapiens
Description: SANGER: Inhibition of human RPMI-6666 cell growth in a cell viability assay.

NCI-H716 = assay: cells; assay type: functional, cell-based; conditions: Homo sapiens;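 further: growth inhibition of human NCI-H716 cells, measured by a cell viability assay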
Description: SANGER: Inhibition of human NCI-H716 cell growth in a cell viability assay.

KARPAS-422 = assay: cells; assay type: functional, cell-based; conditions: Homo sapiens
Description: SANGER: Inhibition of human KARPAS-422 cell growth in a cell viability assay.

HCC1599 = assay: cells; assay type: functional, cell-based; conditions: Homo sapiens;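 further: growth inhibition of HCC1599 cells, read out in a cell viability assay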
Description: SANGER: Inhibition of human HCC1599 cell growth in a cell viability assay.

CMK = assay: cells; assay type: functional, cell-based; conditions: Homo sapiens;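 further: growth inhibition of CMK cells, read out as cell viability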
Description: SANGER: Inhibition of human CMK cell growth in a cell viability assay.

NCI-H187 = assay: cells; assay type: functional, cell-based; conditions: Homo sapiens;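 further: growth inhibition of NCI-H187 cells, read out as cell viability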
Description: SANGER: Inhibition of human NCI-H187 cell growth in a cell viability assay.

SU-DHL-1 = assay: SANGER: Inhibition of human SU-DHL-1 cell growth in a cell viability assay.; assay type: functional, cell-based
LC4-1 = assay: cells; assay type: functional, cell-based; conditions: Homo sapiens;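 further: growth inhibition of LC4-1 cells, read out with a cell viability assay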
Description: SANGER: Inhibition of human LC4-1 cell growth in a cell viability assay.

ECC4 = assay: cells; assay type: functional, cell-based; conditions: Homo sapiens;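 further: growth inhibition of ECC4 cells, read out with a cell viability assay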
Description: SANGER: Inhibition of human ECC4 cell growth in a cell viability assay.

EB2 = assay: cells; assay type: functional, cell-based; conditions: Homo sapiens;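 further: growth inhibition of EB2 cells, read out with a cell viability assay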
Description: SANGER: Inhibition of human EB2 cell growth in a cell viability assay.

WSU-NHL = assay: cells; assay type: functional, cell-based; conditions: Homo sapiens;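 further: growth inhibition of human WSU-NHL cells, read out with a cell viability assay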
Description: SANGER: Inhibition of human WSU-NHL cell growth in a cell viability assay.

Raji = assay: cells; assay type: functional, cell-based; conditions: Homo sapiens;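 further: cell viability assay measuring inhibition of Raji cell growth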
Description: SANGER: Inhibition of human Raji cell growth in a cell viability assay.

LB996-RCC = assay: cells; assay type: functional, cell-based; conditions: Homo sapiens
Description: SANGER: Inhibition of human LB996-RCC cell growth in a cell viability assay.

COLO-684 = assay: cells; assay type: functional, cell-based; conditions: Homo sapiens
Description: SANGER: Inhibition of human COLO-684 cell growth in a cell viability assay.

UACC-812 = assay: cells; assay type: functional, cell-based; conditions: Homo sapiens
Description: SANGER: Inhibition of human UACC-812 cell growth in a cell viability assay.

8-MG-BA = assay: cells; assay type: functional, cell-based, Homo sapiens; conditions: Homo sapiens, 8-MG-BA;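 further: growth inhibition of 8-MG-BA cells, read out with a cell viability assay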
Description: SANGER: Inhibition of human 8-MG-BA cell growth in a cell viability assay.

SIG-M5 = assay: cells; assay type: functional, cell-based; conditions: Homo sapiens;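 further: cell viability assay read-out, measuring how strongly growth of cultured human SIG-M5 cells is inhibited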
Description: SANGER: Inhibition of human SIG-M5 cell growth in a cell viability assay.

YT = assay: cells; assay type: functional, cell-based; conditions: Homo sapiens
Description: SANGER: Inhibition of human YT cell growth in a cell viability assay.

MDA-MB-134-VI = assay: cells; assay type: functional, cell-based; conditions: Homo sapiens
Description: SANGER: Inhibition of human MDA-MB-134-VI cell growth in a cell viability assay.

SW872 = assay: cells; assay type: functional, cell-based, Homo sapiens; conditions: Homo sapiens, SW872;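 further: growth inhibition of SW872 cells, read out by a viability assay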
Description: SANGER: Inhibition of human SW872 cell growth in a cell viability assay.

PF-382 = assay: cells; assay type: functional, cell-based; conditions: Homo sapiens
Description: SANGER: Inhibition of human PF-382 cell growth in a cell viability assay.

GCIY = assay: cells; assay type: functional, cell-based, Homo sapiens; conditions: Homo sapiens, GCIY;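 further: growth inhibition of the human GCIY cell line, read out by a cell viability assay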
Description: SANGER: Inhibition of human GCIY cell growth in a cell viability assay.

D-263MG = assay: cells; assay type: functional, cell-based, Homo sapiens; conditions: Homo sapiens, D-263MG
Description: SANGER: Inhibition of human D-263MG cell growth in a cell viability assay.

COLO-668 = assay: cells; assay type: functional, cell-based, Homo sapiens; conditions: Homo sapiens, COLO-668
Description: SANGER: Inhibition of human COLO-668 cell growth in a cell viability assay.

IMR-5 = assay: cells; assay type: functional, cell-based; conditions: Homo sapiens;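 further: growth inhibition of human IMR-5 cells, read out with a cell viability assay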
Description: SANGER: Inhibition of human IMR-5 cell growth in a cell viability assay.

L-428 = assay: cells; assay type: functional, cell-based; conditions: Homo sapiens
Description: SANGER: Inhibition of human L-428 cell growth in a cell viability assay.

EC-GI-10 = assay: cells; assay type: functional, cell-based, Homo sapiens; conditions: Homo sapiens, EC-GI-10
Description: SANGER: Inhibition of human EC-GI-10 cell growth in a cell viability assay.

RL95-2 = assay: cells; assay type: functional, cell-based; conditions: Homo sapiens;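 further: RL95-2 growth inhibition determined through a cell viability readout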
Description: SANGER: Inhibition of human RL95-2 cell growth in a cell viability assay.

EM-2 = assay: cells; assay type: functional, cell-based; conditions: Homo sapiens;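 further: growth inhibition of EM-2 cells, read out with a cell viability assay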
Description: SANGER: Inhibition of human EM-2 cell growth in a cell viability assay.

SNU-16 = assay: cells; assay type: functional, cell-based; conditions: Homo sapiens;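 further: growth inhibition of human SNU-16 cells, determined with a cell viability readout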
Description: SANGER: Inhibition of human NCI-SNU-16 cell growth in a cell viability assay.

NCI-H1882 = assay: cells; assay type: functional, cell-based; conditions: Homo sapiens;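 further: growth inhibition of the cell line, determined with a viability assay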
Description: SANGER: Inhibition of human NCI-H1882 cell growth in a cell viability assay.

| Compound | IC50 (RL) [µM] | IC50 (IST-SL2) [µM] | IC50 (LP-1) [µM] | IC50 (NCI-H1963) [µM] | IC50 (HCC1187) [µM] | IC50 (RPMI-6666) [µM] | IC50 (NCI-H716) [µM] | IC50 (KARPAS-422) [µM] | IC50 (HCC1599) [µM] | IC50 (CMK) [µM] | IC50 (NCI-H187) [µM] | IC50 (SU-DHL-1) [µM] | IC50 (LC4-1) [µM] | IC50 (ECC4) [µM] | IC50 (EB2) [µM] | IC50 (WSU-NHL) [µM] | IC50 (Raji) [µM] | IC50 (LB996-RCC) [µM] | IC50 (COLO-684) [µM] | IC50 (UACC-812) [µM] | also measured |
| --- | --- | --- | --- | --- | --- | --- | --- | --- | --- | --- | --- | --- | --- | --- | --- | --- | --- | --- | --- | --- | --- |
| C=C1C(=O)O[C@@H]2C3O[C@]3(C)CC/C=C(\C)CC[C@@H]12 (some centres undefined) | > 5 | > 5 | > 5 | > 5 | > 5 | > 5 | > 5 | > 5 | > 5 | > 5 | > 5 | > 5 | > 5 | > 5 | > 5 | > 5 | > 5 | > 5 | > 5 | > 5 | IC50 (8-MG-BA): > 5 µM; IC50 (SIG-M5): > 5 µM; IC50 (YT): > 5 µM; IC50 (MDA-MB-134-VI): > 5 µM; IC50 (SW872): > 5 µM; IC50 (PF-382): > 5 µM; IC50 (GCIY): > 5 µM; IC50 (D-263MG): > 5 µM; IC50 (COLO-668): > 5 µM; IC50 (IMR-5): > 5 µM; IC50 (L-428): > 5 µM; IC50 (EC-GI-10): > 5 µM; IC50 (RL95-2): > 5 µM; IC50 (EM-2): > 5 µM; IC50 (SNU-16): > 5 µM; IC50 (NCI-H1882): > 5 µM |
| CC1=C2C[C@H]3[C@@H](CC=C4C[C@@H](O)CC[C@@]43C)[C@@H]2CC[C@]12O[C@@H]1C[C@H](C)CN[C@H]1[C@H]2C [CYCLOPAMINE] | > 16 | > 16 | > 16 | > 16 | > 16 | > 16 | > 16 | > 16 | > 16 | > 16 | > 16 | > 16 | > 16 | > 16 | > 16 | > 16 | > 16 | > 16 | > 16 | > 16 | IC50 (8-MG-BA): 13.1 µM; IC50 (SIG-M5): > 16 µM; IC50 (YT): > 16 µM; IC50 (MDA-MB-134-VI): > 16 µM; IC50 (SW872): > 16 µM; IC50 (PF-382): > 16 µM; IC50 (GCIY): > 16 µM; IC50 (D-263MG): > 16 µM; IC50 (COLO-668): > 16 µM; IC50 (IMR-5): > 16 µM; IC50 (L-428): > 16 µM; IC50 (EC-GI-10): > 16 µM; IC50 (RL95-2): > 16 µM; IC50 (EM-2): > 16 µM; IC50 (SNU-16): > 16 µM; IC50 (NCI-H1882): > 16 µM |
| CCc1nc(N)nc(N)c1-c1ccc(Cl)cc1 [PYRIMETHAMINE] | > 20 | 11.4 | > 20 | > 20 | > 20 | 14.6 | > 20 | 18.2 | > 20 | 2.46 | > 20 | 10.8 | > 20 | > 20 | > 20 | > 20 | > 20 | > 20 | 6.76 | > 20 | IC50 (8-MG-BA): > 20 µM; IC50 (SIG-M5): 7.98 µM; IC50 (YT): > 20 µM; IC50 (MDA-MB-134-VI): > 20 µM; IC50 (SW872): > 20 µM; IC50 (PF-382): 14.6 µM; IC50 (GCIY): > 20 µM; IC50 (D-263MG): > 20 µM; IC50 (COLO-668): > 20 µM; IC50 (IMR-5): > 20 µM; IC50 (L-428): > 20 µM; IC50 (EC-GI-10): > 20 µM; IC50 (RL95-2): 15.7 µM; IC50 (EM-2): 12.4 µM; IC50 (SNU-16): > 20 µM; IC50 (NCI-H1882): > 20 µM |
| O=C(/C=C/c1ccccc1)NC(NC(=S)Nc1cccc2cccnc12)C(Cl)(Cl)Cl (centres undefined) [SALUBRINAL] | > 16 | 11.8 | 3.37 | > 16 | > 16 | > 16 | > 16 | > 16 | 12.1 | 13.7 | > 16 | > 16 | > 16 | > 16 | > 16 | > 16 | > 16 | > 16 | > 16 | > 16 | IC50 (8-MG-BA): 11 µM; IC50 (SIG-M5): > 16 µM; IC50 (YT): > 16 µM; IC50 (MDA-MB-134-VI): > 16 µM; IC50 (SW872): > 16 µM; IC50 (PF-382): > 16 µM; IC50 (GCIY): > 16 µM; IC50 (D-263MG): > 16 µM; IC50 (COLO-668): > 16 µM; IC50 (IMR-5): 13.8 µM; IC50 (L-428): > 16 µM; IC50 (EC-GI-10): > 16 µM; IC50 (RL95-2): > 16 µM; IC50 (EM-2): > 16 µM; IC50 (SNU-16): > 16 µM; IC50 (NCI-H1882): > 16 µM |
